Patent US20220184222A1, “BICYCLE TOXIN CONJUGATES AND USES THEREOF” (BicycleTx Limited, priority 2019, published 2022)
Several values for one entry are separate records, joined by “and”; a condition that tells them apart may be missing. Identical values can stand only once.

System: PC-3 xenograft
Assay: In vivo efficacy in PC-3 xenograft, male Balb/c nude mice (Example 3)
Parameters: species or system Mus Musculus
Method: The objective of the research is to evaluate the in vivo anti-tumor efficacy of test articles in treatment of PC-3 xenograft in Balb/c nude mice.
The tumor cells were maintained in F-12K medium supplemented with 10% heat inactivated fetal bovine serum at 37° C. in an atmosphere of 5% CO2 in air. The tumor cells were routinely subcultured twice weekly. The cells growing in an exponential growth phase were harvested and counted for tumor inoculation.
Each mouse was inoculated subcutaneously at the right flank with PC-3 tumor cells (10×10^6) in 0.2 ml of PBS for tumor development. 52 animals were randomized when the average tumor volume reached 454 mm^3. The test article administration and the animal numbers in each group were shown in the experimental design table.
The major endpoint was to see if the tumor growth could be delayed or mice could be cured. Tumor volume was measured three times weekly in two dimensions using a caliper, and the volume was expressed in mm3 using the formula: V=0.5 a×b^2 where a and b are the long and short diameters of the tumor, respectively. The tumor size was then used for calculations of T/C value. The T/C value (in percent) is an indication of antitumor effectiveness; T and C are the mean volumes of the treated and control groups, respectively, on a given day.
TGI was calculated for each group using the formula: TGI (%)=[1−(Ti−T0)/(Vi−V0)]×100; Ti is the average tumor volume of a treatment group on a given day, T0 is the average tumor volume of the treatment group on the day of treatment start, Vi is the average tumor volume of the vehicle control group on the same day with Ti, and V0 is the average tumor volume of the vehicle group on the day of treatment start.
Tumor growth inhibition rate for test articles in the PC-3 xenograft model was calculated based on tumor volume measurements at day 20 after the start of the treatment.

[1] = 15 mpk i.v. qw (treatment suspended after the first dosing), day 20

CC(=O)O[C@@]12CO[C@@H]1C[C@H](O)[C@@]1(C)C(=O)[C@H](O)C3=C(C)[C@@H](OC(=O)[C@H](O)[C@@H](NC(=O)OC(C)(C)C)c4ccccc4)C[C@@](O)([C@@H](OC(=O)c4ccccc4)[C@H]21)C3(C)C [Docetaxel, reference compound]
tumor relapse after ceasing the treatment (15 mg/kg qw): obvious tumor relapse | animal body weight loss (15 mg/kg qw, after the first dosing): severe animal body weight loss | Tumor volume (15 mpk i.v. qw (treatment suspended after the first dosing), day 0): 453 mm^3 | Tumor volume (15 mpk i.v. qw (treatment suspended after the first dosing), day 2): 584 mm^3 | Tumor volume (15 mpk i.v. qw (treatment suspended after the first dosing), day 4): 632 mm^3 | Tumor volume (15 mpk i.v. qw (treatment suspended after the first dosing), day 6): 636 mm^3 | Tumor volume (15 mpk i.v. qw (treatment suspended after the first dosing), day 8): 568 mm^3 | Tumor volume (15 mpk i.v. qw (treatment suspended after the first dosing), day 10): 408 mm^3 | Tumor volume (15 mpk i.v. qw (treatment suspended after the first dosing), day 13): 374 mm^3 | Tumor volume (15 mpk i.v. qw (treatment suspended after the first dosing), day 15): 388 mm^3 | Tumor volume (15 mpk i.v. qw (treatment suspended after the first dosing), day 17): 361 mm^3 | T/C [1]: 17.7% | TGI [1]: 101.8% | Tumor volume [1]: 419 mm^3 and 419 ± 31 mm^3
